We go through 23 molecules from patent publication US8901118B2, “Compounds and methods for kinase modulation, and indications therefor” (Plexxikon Inc., priority 2010, dated 2014).

One assay concerns the target CYP3A4(BQ) (Homo sapiens, UniProt P08684). In words: CYP3A4(BQ) inhibition. It is filed as in vitro ADME. The note with it: CYP3A4, substrate BQ; read-out: Cyp IC50 3A4(BQ). The method, boiled down: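 Inhibition of human CYP3A4 (BQ substrate) was measured by fluorescence, since blocking metabolism of a known substrate lowers the fluorescent product signal. Compounds dissolved in DMSO at 100 mM were diluted into acetonitrile and then into NADPH regeneration cofactor mix, serially diluted 1:1 across 10 points, and preincubated in 384 well plates for 10 minutes at 37° C.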

For a further assay, the system named is MV-4-11 cells. In words: MV-4-11 (leukemia) cell proliferation assay (ATPlite). The conditions noted are these: Homo sapiens, MV4-11, read-out: Inhibition of Cell Proliferation IC50, MV-4-11. It is filed as cell-based. As to the method: Compounds are assessed in a variety of cell based assays. For example BaF3 cells engineered with any of BCR-FMS, BCR-KIT, BCR-FLT3, BCR-NTRK1, BCR-NTRK2, and BCR-NTRK3, are used in cell proliferation assays to assess inhibitory activity of Fms, Kit, Flt-3, TrkA, TrkB, and TrkC, respectively. An MV-4-11 (leukemia) cell proliferation assay is used to assess inhibitory activity in Flt-3, and SKNSH (human neuroblastoma) cell proliferation assay is used to assess efficacy of Fms/Trk inhibitors. Additional cells may be assayed similarly to assess the efficacy of Fms/Trk inhibitors, such as MiaPaCa (human pancreatic cancer) and Capan-1 (human pancreatic carcinoma) cells. Reagent and assay conditions are as follows: • BaF3 cells: • Maintained in RPMI containing 10% FBS, 1% PenStrep, 1% NEAA, and 1% L-Glutamine, supplemented with 1 mg/mL G418 and 5% WEHI-CM (or recombinant murine IL-3). • Confluent cells are split 1:50 to 1:100 every 3-4 days. • MV-4-11 cells: • Maintained in Iscove's Modified Dulbecco's Medium containing 10% FBS. • Confluent cells are split 1:4 every 3-4 days. • SKNSH cells: RPMI containing 10% FBS. On day 1, cells are counted, then centrifuged in a conical tube for 5 minutes at 1000 rpm. The supernatant is removed and cells are re-suspended as follows: • BaF3: resuspend in growth media +1 mg/mL G418 (without WEHFIL-3) to 2×10^5 cells/mL. • MV-4-11: resuspend in growth media to 5×10^5 cells/mL. • SKNSH: resuspend in growth media to 2×10^4 cells/mL. The cells are plated (50 μL, 150 μL for SKNSH cells) in each well of a 96-well dish (Corning 3610) and incubated at 37° C. in 5% CO2 overnight, cells plated to a final concentration of cells as follows: • BaF3: 10,000 cells per well. • MV-4-11: 25,000 cells per well. • SKNSH: 3,000 cells per well. On day 2, compound at a maximum concentration of 5 mM is serially diluted 1:3 for a total of 8 point titration with DMSO as a control. A 1 μL aliquot of each dilution point is added to 249 μL growth media and 50 μL is added to a well containing cells, providing 10 μM compound for the maximum concentration point. The cells are incubated for 3 days at 37° C. in 5% CO2. For SKNSH cells, a 0.75 μL aliquot of appropriate dilution in DMSO is added to 150 μL of cells. On day 5, ATPlite 1 step Luminescence Assay System (Perkin Elmer #6016739) is brought to room temperature along with the cell cultures. ATPlite is added to each well as follows: • BaF3: 25 μL per well. • MV-4-11: 40 μL per well. • SKNSH: 20 μL per well. The cells are incubated at room temperature for 10 minutes, then luminescence is read on Safire reader. The measured luminescence correlates directly with cell number, such that the reading as a function of compound concentration is used to determine the IC50 value.
It is understood that the results of these assays may vary as assay conditions are varied. Inhibition levels determined under the conditions described herein represent a relative activity for the compounds tested under the specific conditions employed. The cell based assays are likely to show variability due to the complexity of the system and the sensitivity thereof to any changes in the assay conditions. […] Results for compounds that are tested and show substantially no inhibition below the highest tested concentration are represented as “-” in the tables below. In some instances, the compounds were not tested in all of the assays, or assay results were not valid, as indicated by NA in the tables below.
(In ATP-based viability assays light output follows the ATP content of the culture.)

Some results are limits rather than exact numbers.

Sequence of CYP3A4(BQ) (P08684 whole entry): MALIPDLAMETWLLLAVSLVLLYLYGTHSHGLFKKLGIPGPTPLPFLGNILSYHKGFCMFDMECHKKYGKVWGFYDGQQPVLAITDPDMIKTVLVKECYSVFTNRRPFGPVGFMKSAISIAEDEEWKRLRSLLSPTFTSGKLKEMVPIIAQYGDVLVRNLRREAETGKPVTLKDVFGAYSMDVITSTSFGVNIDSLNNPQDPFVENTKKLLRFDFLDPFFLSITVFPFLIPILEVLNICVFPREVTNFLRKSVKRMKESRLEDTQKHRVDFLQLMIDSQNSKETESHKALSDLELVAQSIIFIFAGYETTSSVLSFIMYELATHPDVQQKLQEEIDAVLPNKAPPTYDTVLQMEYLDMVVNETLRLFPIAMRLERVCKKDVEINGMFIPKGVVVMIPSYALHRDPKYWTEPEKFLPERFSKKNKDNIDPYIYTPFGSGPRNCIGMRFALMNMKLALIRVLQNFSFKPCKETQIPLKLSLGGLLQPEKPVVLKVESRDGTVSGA

In the case of `CCOc1ncnc2[nH]cc(Cc3ccc(Nc4cnn(CC)c4)nc3F)c12` [Compound P-4012, [5-(4-Ethoxy-7H-pyrrolo[2,3-d]pyrimidin-5-ylmethyl)-6-fluoro-pyridin-2-yl]-(1-ethyl-1H-pyrazol-4-yl)-amine], the IC50 on CYP3A4(BQ) is more than 10000 nM; in the assay with MV-4-11 cells, less than 1000 nM.

As for `COc1ncnc2[nH]cc(Cc3ccc(Nc4ccc(C)nc4)nc3F)c12` [Compound P-4010, [6-Fluoro-5-(4-methoxy-7H-pyrrolo[2,3-d]pyrimidin-5-ylmethyl)-pyridin-2-yl]-(6-methyl-pyridin-3-yl)-amine], the IC50 at CYP3A4(BQ) was more than 10000 nM; in the assay with MV-4-11 cells, less than 1000 nM.

Turning to `CCOc1ccc(Nc2ccc(Cc3c[nH]c4ncnc(C)c34)c(F)n2)cn1` [Compound P-4006, (6-Ethoxy-pyridin-3-yl)-[6-fluoro-5-(4-methyl-7H-pyrrolo[2,3-d]pyrimidin-5-ylmethyl)-pyridin-2-yl]-amine], the figures for the IC50 at CYP3A4(BQ) and with MV-4-11 cells were more than 10000 nM and less than 100 nM, respectively.

As for `Cc1cnc2[nH]cc(Cc3cnc(Nc4cc(OC(C)C)n[nH]4)nc3)c2c1` [Compound P-3038, (5-Isopropoxy-2H-pyrazol-3-yl)-[5-(5-methyl-1H-pyrrolo[2,3-b]pyridin-3-ylmethyl)-pyrimidin-2-yl]-amine], the IC50 in the assay on MV-4-11 cells was more than 1000 nM.

Consider `CCc1ccc(Nc2ccc(Cc3c[nH]c4ncnc(OC)c34)c(F)n2)cn1` [Compound P-4007, (6-Ethyl-pyridin-3-yl)-[6-fluoro-5-(4-methoxy-7H-pyrrolo[2,3-d]pyrimidin-5-ylmethyl)-pyridin-2-yl]-amine], for which the IC50 on CYP3A4(BQ) is more than 10000 nM; with MV-4-11 cells, less than 1000 nM.

With `Cc1cnc2[nH]cc(Cc3cnc(Nc4ccc(C(F)(F)F)nc4)nc3)c2c1` [Compound P-3018, [5-(5-Methyl-1H-pyrrolo[2,3-b]pyridin-3-ylmethyl)-pyrimidin-2-yl]-(6-trifluoromethyl-pyridin-3-yl)-amine], the results for the IC50 on CYP3A4(BQ) and in the assay with MV-4-11 cells were more than 10000 nM and less than 10 nM, respectively.

With `CCc1ccc(Nc2ccc(Cc3c[nH]c4ncnc(OCCOC)c34)c(F)n2)cn1` [Compound P-4016, (6-Ethyl-pyridin-3-yl)-{6-fluoro-5-[4-(2-methoxy-ethoxy)-7H-pyrrolo[2,3-d]pyrimidin-5-ylmethyl]-pyridin-2-yl}-amine], the IC50 was more than 10000 nM on CYP3A4(BQ) and less than 100 nM in the assay with MV-4-11 cells.

As to `CCn1ccc(Nc2ncc(Cc3c[nH]c4ncc(C)cc34)cn2)n1` [Compound P-3035, (1-Ethyl-1H-pyrazol-3-yl)-[5-(5-methyl-1H-pyrrolo[2,3-b]pyridin-3-ylmethyl)-pyrimidin-2-yl]-amine], in the assay with MV-4-11 cells, the IC50 was less than 1000 nM.

For `COc1ccc(Nc2ccc(Cc3c[nH]c4ncc(C)cc34)c(F)n2)cn1` [Compound P-3019, [6-fluoro-5-(5-methyl-1H-pyrrolo[2,3-b]pyridin-3-ylmethyl)-pyridin-2-yl]-(6-methoxy-pyridin-3-yl)-amine], the IC50 on CYP3A4(BQ) was more than 10000 nM; in the assay with MV-4-11 cells, less than 1000 nM.

Regarding `COCCOc1ncnc2[nH]cc(Cc3ccc(Nc4ccc(C)nc4)nc3F)c12` [Compound P-4015, {6-Fluoro-5-[4-(2-methoxy-ethoxy)-7H-pyrrolo[2,3-d]pyrimidin-5-ylmethyl]-pyridin-2-yl}-(6-methyl-pyridin-3-yl)-amine], the IC50 is more than 10000 nM at CYP3A4(BQ) and less than 1000 nM in the assay with MV-4-11 cells.

For the molecule `COc1ncnc2[nH]cc(Cc3ccc(Nc4ccc(Cl)nc4)nc3F)c12` [Compound P-4003, (6-Chloro-pyridin-3-yl)-[6-fluoro-5-(4-methoxy-7H-pyrrolo[2,3-d]pyrimidin-5-ylmethyl)-pyridin-2-yl]-amine], the IC50 on CYP3A4(BQ) was more than 10000 nM; in the assay with MV-4-11 cells, less than 1000 nM.

Regarding `COc1ncnc2[nH]cc(Cc3ccc(Nc4ccc(C5CC5)nc4)nc3F)c12` [Compound P-4004, (6-Cyclopropyl-pyridin-3-yl)-[6-fluoro-5-(4-methoxy-7H-pyrrolo[2,3-d]pyrimidin-5-ylmethyl)-pyridin-2-yl]-amine], the IC50 was more than 10000 nM at CYP3A4(BQ) and less than 1000 nM in the assay with MV-4-11 cells.

Regarding `COc1ccc(Nc2ncc(Cc3c[nH]c4ncc(C)cc34)cn2)cn1` [Compound P-3020, (6-Methoxy-pyridin-3-yl)-[5-(5-methyl-1H-pyrrolo[2,3-b]pyridin-3-ylmethyl)-pyrimidin-2-yl]-amine], the IC50 in the assay on MV-4-11 cells is less than 100 nM.

With `CCOc1ccc(Nc2ccc(Cc3c[nH]c4ncnc(OCCOC)c34)c(F)n2)cn1` [Compound P-4008, (6-Ethoxy-pyridin-3-yl)-{6-fluoro-5-[4-(2-methoxy-ethoxy)-7H-pyrrolo[2,3-d]pyrimidin-5-ylmethyl]-pyridin-2-yl}-amine], the IC50 is more than 10000 nM on CYP3A4(BQ) and less than 100 nM in the assay on MV-4-11 cells.

On to `CCc1ccc(Nc2ccc(Cc3c[nH]c4ncnc(C)c34)c(F)n2)cn1` [Compound P-4009, (6-Ethyl-pyridin-3-yl)-[6-fluoro-5-(4-methyl-7H-pyrrolo[2,3-d]pyrimidin-5-ylmethyl)-pyridin-2-yl]-amine], for which the IC50 at CYP3A4(BQ) was more than 10000 nM; in the assay with MV-4-11 cells it was less than 100 nM.

Take `CCOc1ccc(Nc2ccc(Cc3c[nH]c4ncc(C)cc34)c(F)n2)cn1` [Compound P-3039, (6-ethoxy-pyridin-3-yl)-[6-fluoro-5-(5-methyl-1H-pyrrolo[2,3-b]pyridin-3-ylmethyl)-pyridin-2-yl]-amine]: the IC50 in the assay with MV-4-11 cells was less than 1000 nM.

For `CCn1cc(Nc2ncc(Cc3c[nH]c4ncc(C)cc34)cn2)cn1` [Compound P-3036, (1-Ethyl-1H-pyrazol-4-yl)-[5-(5-methyl-1H-pyrrolo[2,3-b]pyridin-3-ylmethyl)-pyrimidin-2-yl]-amine], the IC50 with MV-4-11 cells was less than 100 nM.

Consider `COc1cc(Nc2ncc(Cc3c[nH]c4ncc(C)cc34)cn2)ccc1F` [Compound P-3022, (4-Fluoro-3-methoxy-phenyl)-[5-(5-methyl-1H-pyrrolo[2,3-b]pyridin-3-ylmethyl)-pyrimidin-2-yl]-amine], for which the IC50 with MV-4-11 cells was less than 1000 nM.

As to `FC1(F)CCC(Nc2ncc(Cc3c[nH]c4ncc(Cl)cc34)cn2)CC1` [Compound P-3004], the IC50 was more than 10000 nM at CYP3A4(BQ) and less than 10000 nM in the assay on MV-4-11 cells.

As for `CCOc1ncnc2[nH]cc(Cc3ccc(Nc4ccc(OC)nc4)nc3F)c12` [Compound P-4018, [5-(4-Ethoxy-7H-pyrrolo[2,3-d]pyrimidin-5-ylmethyl)-6-fluoro-pyridin-2-yl]-(6-methoxy-pyridin-3-yl)-amine], the IC50 at CYP3A4(BQ) was more than 10000 nM; in the assay on MV-4-11 cells it was less than 1000 nM.

Consider `CCOc1ccc(Nc2ncc(Cc3c[nH]c4ncc(C)cc34)cn2)cn1` [Compound P-3027, (6-Ethoxy-pyridin-3-yl)-[5-(5-methyl-1H-pyrrolo[2,3-b]pyridin-3-ylmethyl)-pyrimidin-2-yl]-amine], for which the IC50 with MV-4-11 cells was less than 10 nM.

As for `COc1ccc(Nc2ncc(Cc3c[nH]c4ncc(C)cc34)cn2)cc1F` [Compound P-3023, (3-Fluoro-4-methoxy-phenyl)-[5-(5-methyl-1H-pyrrolo[2,3-b]pyridin-3-ylmethyl)-pyrimidin-2-yl]-amine], the IC50 in the assay on MV-4-11 cells was less than 100 nM.

Take `COc1ccc(Nc2ccc(Cc3c[nH]c4ncnc(OC)c34)c(F)n2)cn1` [Compound P-4001, [6-Fluoro-5-(4-methoxy-7H-pyrrolo[2,3-d]pyrimidin-5-ylmethyl)-pyridin-2-yl]-(6-methoxy-pyridin-3-yl)-amine]: the IC50 with MV-4-11 cells was less than 1000 nM.
